From publication PMC8878047 (Pharmaceutics, 2022)

System: KM mice
Assay type: in vivo
Settings: high-dose group, dead mice, HE staining
Method: After the acute toxicity test, the dead mice after oral administration and the surviving mice at the end of the observation period were promptly dissected and pathologically examined. […] We dissected the important organs (heart, liver, spleen, lung, kidney, large intestine, and small intestine) of dead mice and normal mice in the high-dose group of each drug solution. Then, the main organs were fixed in 10% buffered formalin and embedded in paraffin for 1–4 h. They were histopathologically examined under the optical microscope after slicing and staining with hematoxylin-eosin (HE) staining. No fixed parameters were compared between the treatment and control groups.

CCN1CCN(c2cc3c(cc2F)c(=O)c(C(=O)[O-])cn3C2CC2)CC1.[Na+] [EFX-Na, reference compound]
histopathological finding in kidney tissue: more and larger glomeruli in kidney tissue
